In assay [1] the target is T1, human dopamine D2S receptors (Homo sapiens, UniProt P14416).
T1 construct: expressed in transfected cells; host or cells: CHO
Description: Binding affinity test on human dopamine D2S receptors ([3H]spiperone, CHO membranes). As to conditions: for Ki: Dopamine D2S; for binding affinity (in words): human dopamine D2S receptors. The method, then: (§1) For the test, membrane specimens prepared from Chinese hamster ovary (CHO) cells expressing human dopamine D2S receptors were used. To a 50 mM Tris-HCl (pH 7.4) buffer containing 1.4 mM ascorbic acid, 0.001% BSA, and 150 mM NaCl, [^3H] spiperone (final concentration 0.16 nM), the test sample solution and a membrane specimen were added. The reaction solution was allowed to react at 25° C. for 2 hours, then the reaction solution was filtered with a cell harvester, the filtered filter paper was transferred to a measurement vial, a liquid scintillator was added, and the receptor bond radioactivity remaining on the filter paper was determined with a liquid scintillation counter. The nonspecific bonds were defined as the amount of bonds in the presence of 10 μM haloperidol.
The following formula was used to calculate the binding inhibition rate: […]
(§2) From the binding inhibition rate, a regression formula was used to calculate the 50% inhibition concentration. Furthermore, the inhibition constant (Ki) was calculated.

The target of assay [2] is T2, human serotonin 1A receptors (Homo sapiens, UniProt P08908).
T2 construct: expressed in transfected cells; host or cells: CHO-K1
T2 sequence (P08908 1-422): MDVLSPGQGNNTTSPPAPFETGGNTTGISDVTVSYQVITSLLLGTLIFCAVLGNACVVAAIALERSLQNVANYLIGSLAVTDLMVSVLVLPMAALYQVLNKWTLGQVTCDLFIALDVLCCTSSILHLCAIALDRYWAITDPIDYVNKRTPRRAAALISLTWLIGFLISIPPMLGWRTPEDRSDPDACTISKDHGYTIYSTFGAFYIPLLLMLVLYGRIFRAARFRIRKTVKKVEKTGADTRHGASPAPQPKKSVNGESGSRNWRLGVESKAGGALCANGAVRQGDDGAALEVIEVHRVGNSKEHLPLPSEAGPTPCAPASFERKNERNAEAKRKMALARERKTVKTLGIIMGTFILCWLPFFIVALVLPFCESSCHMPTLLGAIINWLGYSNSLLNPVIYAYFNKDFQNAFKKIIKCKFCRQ
Description: Agonist/antagonist assay, [35S]GTPgammaS binding, human serotonin 1A receptors. The assay is classed as biochemical. As to conditions: for EC50 / Emax / IC50: Serotonin 1A; for agonist activity (in words): human serotonin 1A receptors. The protocol: For the tests, membrane specimens prepared from Chinese hamster ovary (CHO-K1) cells expressing human serotonin 1A receptors, Chinese hamster ovary (CHO) cells expressing human dopamine D2L receptors, Chinese hamster ovary (CHO) cells expressing human dopamine D2S receptors and Chinese hamster ovary (CHO) cells expressing human dopamine D3 receptors were used. In the agonist assays, for the serotonin 1A receptors, [^35S] GTPγS (final concentration 0.1 nM), a GDP solution (final concentration 3 μM), the test sample solution and a membrane specimen were added to a 20 mM Hepes-NaOH buffer (pH 7.4) containing 100 mM NaCl, 3 mM MgCl2 and 10 μg/mL saponin and allowed to react at 25° C. for 30 minutes. Further, for the dopamine (D2L, D2S and D3) receptors, [^35S] GTPγS (i.e., final concentration 0.1 nM), a GDP solution (final concentration 3 μM), the test sample solution and a membrane specimen were added to a 20 mM Hepes-NaOH buffer (pH 7.4) containing 100 mM NaCl, 10 mM MgCl2, 1 mM DTT and 1 mM EDTA and allowed to react at 30° C. for 15 minutes (in the case of D2L receptors) or for 30 minutes (in the cases of D2S and D3 receptors). Further, in the antagonist assays, except for adding to the reaction solutions 10 μM 5-carboxamide tryptamine (5-CT) (in the case of serotonin 1A receptors), 3 μM dopamine (in the cases of D2L and D2S receptors), or 0.1 μM dopamine (in the case of D3 receptors), operations were performed similar to the agonistic tests. After the end of the reaction, the reaction solution was filtered with a cell harvester, the filtered filter paper was transferred to a measurement vial, a liquid scintillator was added, and the radioactivity of the [^35S] GTPγS remaining on the filter paper was determined by a liquid scintillation counter. The human serotonin 1A receptor and human dopamine (D2L, D2S, and D3) receptor agonist/antagonist activities of the test sample were expressed as the rates of increase, when making the increase in [^35S] GTPγS bonds due to 10 μM 5-CT (in the case of serotonin 1A receptors), 3 μM dopamine (in the cases of D2L and D2S receptors), or 0.1 μM dopamine (in the case of D3 receptors) 100%. From the bond increasing rate, a regression formula was used to calculate the 50% reaction concentration (EC50) and 50% inhibition concentration (IC50).
A general note: GTPγS is a poorly hydrolysed GTP analogue; its binding reports G protein activation.

Assay [3] concerns the target T3, human dopamine D2L receptors (Homo sapiens, UniProt P14416).
T3 construct: expressed in transfected cells; host or cells: CHO
Description: Binding affinity test on human dopamine D2L receptors ([3H]spiperone, CHO membranes). As to conditions: for Ki: Dopamine D2L; for binding affinity (in words): human dopamine D2L receptors. The protocol:
as §1, with “dopamine D2L” for “dopamine D2S”, “was added” for “was added,”, “determined by” for “determined with”
The following formula was used to calculate the binding inhibition rate:
[amount of [^3H] spiperone bonds in the presence of 10 μM haloperidol]}/{[amount of [^3H] spiperone bonds in the absence of test sample]−[amount of [^3H] spiperone bonds in the presence of 10 μM haloperidol]}
as §2

[4] abbreviates: 10 μM 5-CT = 100%, read-out: Agonist assay Emax.
Where [5] appears, read: with 10 μM 5-CT, read-out: Antagonist assay Emax.

This note sets out measurements from patent publication US20100204202A1, “DRUG FOR ALLEVIATING MOTOR COMPLICATIONS OR PSYCHIATRIC SYMPTOMS OF PARKINSON'S DISEASE” (Asubio Pharma Co., Ltd., priority 2007, published 2010).

By Ki is commonly meant the dissociation constant of the complex between target and ligand, obtained from inhibition or displacement. Higher therefore signals weaker binding. For orientation: EC50 means the concentration giving half of the maximal effect. Low values mean higher potency in that assay, high ones lower potency in that assay. One may read the Emax as the greatest response seen or fitted, relative to the assay's reference. By IC50 is commonly meant the concentration that inhibits the measured activity by half. A lower IC50 goes with greater potency.

“Also recorded” adds a separate entry of the source. Counter-ions that a name gives are not always drawn. Like-named read-outs stand apart in the source and are kept apart here.

T1 sequence (P14416 1-414 isoform P14416-2): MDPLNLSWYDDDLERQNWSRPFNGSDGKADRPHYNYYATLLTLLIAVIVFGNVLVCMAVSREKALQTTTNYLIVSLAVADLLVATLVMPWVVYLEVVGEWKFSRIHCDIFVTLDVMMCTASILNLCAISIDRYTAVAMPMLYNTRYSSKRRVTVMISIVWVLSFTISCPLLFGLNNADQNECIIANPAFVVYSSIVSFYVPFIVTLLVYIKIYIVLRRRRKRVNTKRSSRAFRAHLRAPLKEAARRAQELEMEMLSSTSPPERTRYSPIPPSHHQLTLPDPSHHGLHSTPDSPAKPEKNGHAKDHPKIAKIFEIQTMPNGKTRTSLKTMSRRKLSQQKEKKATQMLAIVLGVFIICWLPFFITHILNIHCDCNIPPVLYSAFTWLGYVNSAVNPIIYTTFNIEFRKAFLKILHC
T3 sequence (P14416 whole entry): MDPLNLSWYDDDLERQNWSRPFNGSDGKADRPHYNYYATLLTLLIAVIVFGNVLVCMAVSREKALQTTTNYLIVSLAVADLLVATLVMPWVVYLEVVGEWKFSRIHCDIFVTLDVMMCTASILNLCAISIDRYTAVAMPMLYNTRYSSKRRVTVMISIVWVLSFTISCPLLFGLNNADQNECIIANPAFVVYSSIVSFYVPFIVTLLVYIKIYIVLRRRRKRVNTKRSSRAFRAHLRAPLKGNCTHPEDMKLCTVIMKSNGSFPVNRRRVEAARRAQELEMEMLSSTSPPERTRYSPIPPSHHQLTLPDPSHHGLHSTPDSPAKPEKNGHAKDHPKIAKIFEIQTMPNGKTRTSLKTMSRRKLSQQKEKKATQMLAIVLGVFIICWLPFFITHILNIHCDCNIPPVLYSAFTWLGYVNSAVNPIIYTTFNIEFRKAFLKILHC

`Cl.Cl.Fc1ccc(-c2cncc(CNC[C@H]3CCc4ccccc4O3)c2)cc1` [Sarizotan, 1-[(2R)-3,4-dihydro-2H-chromen-2-yl]-N-{[5-(4-fluorophenyl)pyridin-3-yl]methyl}methanamine dihydrochloride]: the results for the Ki in assay [1] and in assay [3] were 2.56 nM and 3.29 nM, respectively. The “binding affinity (in words)” value in assay [1] and in assay [3] was “comparatively strong binding affinity” each time. In assay [2], a half-maximal effect (EC50) was put at 2.4 nM. For the same compound, the Emax in assay [2] (setting [4]) came out at 100%; in assay [2] (setting [5]), 4%. Besides, in assay [2] (with 10 μM 5-CT), the IC50 was over 100 nM. In assay [2], the “agonist activity (in words)” value was “particularly strong in activity”.

Consider `O=C1c2ccccc2OC=C(Cl)N1CCCCN1CC=C(c2ccccn2)CC1` [SUN N4057, 3-chloro-4,5-dihydro-4-{4-[4-(2-pyridyl)-1,2,3,6-tetrahydropyridin-1-yl]butyl}-1,4-benzoxazepin-5-one.dihydrochloride-dihydrate], for which the Ki is 162 nM in assay [1] and 161 nM in assay [3]. The midpoint of the response in assay [2], the EC50, lay at 2.41 nM. Further, the Emax in assay [2] (setting [4]) is 100%; in assay [2] (setting [5]) it was 3%. The 50% inhibitory concentration (IC50) in assay [2] (with 10 μM 5-CT) was over 100 nM. In addition, the “agonist activity (in words)” value in assay [2] is recorded as “particularly strong in activity; also recorded: powerful agonist action”.

For the compound `Cl.Cl.O=c1[nH]c2cccc(C3CCCN(Cc4cncc(-c5ccc(F)cc5)c4)C3)c2o1` (stereo not drawn) [7-(1-{[5-(4-fluorophenyl)pyridin-3-yl]methyl}piperidin-3-yl)-1,3-benzoxazol-2(3H)-one dihydrochloride], the Ki was 6.34 nM in assay [1] and 5.42 nM in assay [3]. In addition, the “binding affinity (in words)” value in assay [1] and in assay [3] was “comparatively strong binding affinity” each time. Further, the EC50 in assay [2] is 108 nM. For the same compound, the Emax was determined as 100% in assay [2] (setting [4]) and 14% in assay [2] (setting [5]). Moreover, in assay [2] (with 10 μM 5-CT), the concentration for half-maximal inhibition (IC50) was over 20000 nM.
